Test results from patent US7494754B2, “Electrophotographic photoreceptor containing asymmetric naphthalenetetracarboxylic acid diimide derivatives and electrophotographic imaging apparatus employing the same” (Samsung Electronics Co., Ltd., priority 2005, dated 2009).

Experiment: Solubility test in organic solvents
Type: physicochemical
Conditions: for Methylene chloride (g): amount of solvent required to completely dissolve 1 g of the tested compound / Tetrahydrofuran (g): amount of solvent required to completely dissolve 1 g of the tested compound: room temperature, 1 g compound
Protocol: 1 g of a compound to be tested was poured into a test tube with stirring at room temperature and solvents listed in Table 1 were slowly added drop by drop. The amounts of the solvents required to completely dissolve 1 g of the tested compound were measured.

| Methylene chloride (g): amount of solvent required to completely dissolve 1 g of the tested compound [g] | Tetrahydrofuran (g): amount of solvent required to completely dissolve 1 g of the tested compound [g] | solubility in organic solvents (in words) | Structure (SMILES) |
| --- | --- | --- | --- |
| 1.5 | 12 |  | CCCCN1C(=O)c2ccc3c4c(ccc(c24)C1=O)C(=O)N(C(C)c1ccccc1)C3=O (stereo not shown) [Compound (4)] |
| 17 | 74 | very poor solubility | CCCCN1C(=O)c2ccc3c4c(ccc(c24)C1=O)C(=O)N(CCCC)C3=O [Compound (40)] |
| 1.3 | 7 |  | CCCCN1C(=O)c2ccc3c4c(ccc(c24)C1=O)C(=O)N(C(CC)c1ccccc1)C3=O (stereo not shown) [Compound (12)] |
| 3.5 | 50 | poor solubility | CC(c1ccccc1)N1C(=O)c2ccc3c4c(ccc(c24)C1=O)C(=O)N(C(C)c1ccccc1)C3=O (stereo not shown) [Compound (30)] |
